Experimental findings from patent publication US8481546B2, “CGRP receptor antagonist” (Bristol-Myers Squibb Company, priority 2010, dated 2013) are described below.

Molecules are shown by their SMILES. Bounds are passed on as bounds.

The test system of data set [1] is olfactory epithelium (nasal tissues). The experiment in a line: One-week comparative intranasal irritation study in rats (Compound I vs Compound III): nasal histology and tolerability. Type of data set: in vivo. Particulars: for Olfactory Epithelial Atrophy, incidence of severity Marked (number of rats) / Olfactory Epithelial Atrophy, incidence of severity Mild (number of rats) / Olfactory Epithelial Atrophy, incidence of severity Minimal (number of rats) / Olfactory Epithelial Atrophy, incidence of severity Moderate (number of rats) / Olfactory Epithelial Atrophy, incidence of severity None (number of rats): 1 week. On the procedure: This study was conducted to compare potential nasal irritation of Compound I to Compound III when given intranasally to male rats for 1 week. Male rats (10/group) were instilled intranasally with Compound I or Compound III solutions ([…] in 225 mM succinic acid, 0.02% benzalkonium chloride, 1.25% anhydrous dextrose, pH 5.8-6.2) once daily at a dose volume of 100 μL/nostril. Using this dosing paradigm, fixed doses of 5, 15 or 35 mg of test article were delivered daily. As a consequence, dosages normalized to body weight decreased with time as the rats grew. One control group was given succinate vehicle and a sham control group was given saline by intranasal instillation. Parameters evaluated included clinical observations, body weight, food consumption, toxicokinetics, and histological evaluation of nasal tissues.

Data set [2] has as its system CGRP-induced increases in marmoset facial blood flow. The experiment in a line: Marmoset facial blood flow. It counts as in vivo, common marmosets (Callithrix jacchus). The method, then: To evaluate the in vivo efficacy of novel CGRP receptor antagonists, marmosets receive a series of four intravenous injections of hαCGRP (at 45 min intervals). The first serves as a baseline control, and is followed by subcutaneous delivery of test article. The subsequent three CGRP challenges provide an assessment of functional CGRP antagonism in vivo.
Adult male and female common marmosets (Callithrix jacchus) weighing 350-650 g serve as subjects.
Animals are anesthetized by isoflurane inhalation in an induction chamber (4-5% rapid induction, maintained with 1-2.5%; Solomon et al., 1999). Anesthesia is maintained by delivering a constant supply of air:oxygen (50:50) and isoflurane via intubation and ventilation (with blood gas monitoring). Body temperature is maintained at 38±0.5° C. by placement on an automated temperature controlled surface with rectal probe. A small area of fur (approx. 1.5 cm square) is removed from one or both sides of the face by application of a depilatory cream and/or shaving. Surgical areas are clipped and prepared with betadine. An IV line is placed in the saphenous vein for the administration of test compounds and the CGRP receptor agonist hαCGRP. Additionally this IV line provides for withdrawal of blood samples (max 2.5 ml, 10%) for blood gas monitoring and analysis of compound plasma levels. A solution of 5% dextrose is administered IV in order to maintain blood sugar levels. Anesthesia depth is monitored by measuring blood pressure and heart rate using a non-invasive arm cuff method and a pulse oximeter, respectively. […] Microvascular blood flow is monitored by attaching a self adhesive laser Doppler flow probe to the facial skin. The probe records the number of red blood cells crossing the path of two laser beams, multiplied by their velocity (reported as changes in flux).
Test compounds are administered SC (0.1-0.6 ml/kg) in the nape of the neck. The CGRP-receptor agonist, hαCGRP is delivered IV (1 ml/kg) at a dose of 10 μg/kg.
To assess in vivo efficacy and duration of action, a control increase in facial blood flow is induced by administration of hαCGRP (10 μg/kg IV) 30 min prior (−0.5 hr) to drug delivery. Compound I is then administered at time zero (0 min) and repeat hαCGRP are delivered at 45 min intervals for ˜2 hr (data collected at 0.25, 1 and 1.75 hrs post-dose). Compound I is dosed at 0.003, 0.01 and 0.03 mg/kg, SC. Plasma samples are obtained just before each hαCGRP administration. Following testing, animals are returned to the transport cage which is placed on a temperature controlled surface that keep the animals warm until fully awake and ambulatory. Animals may be tested again after a 14-21 day rest and washout period.

The subject of data set [3] is CGRP-induced dilation of ex vivo human intracranial arteries. Nature of the data set: Schild analysis: inhibition of CGRP concentration-response curve in ex vivo human intracranial artery. The method, then: To assess functional antagonism against a range of CGRP concentrations, Compound I is pre-incubated with individual artery rings in the tissue bath and then a CGRP concentration-response curve is generated to achieve complete dilation (using multiple agonist and multiple antagonist doses). Higher concentrations of antagonist produce a ‘right-shift’ in the CGRP concentration-response curve, requiring greater concentrations of agonist to overcome the presence of antagonist and achieve full dilation. In short, wire mounted artery rings are pre-incubated with antagonist, then contracted with KCl (to mimic endogenous tone), and followed by addition of increasing concentrations of CGRP to achieve full relaxation.
Each wire mounted artery ring is pre-incubated for 30 min with a single concentration (0.1-30 nM) of the antagonist Compound I, then contracted with 10 mM KCl (to mimic endogenous tone), followed by addition of increasing concentrations of CGRP to achieve full relaxation. The KCl contraction is allowed to stabilize, such that total antagonist pretreatment time is approximately 45 min prior to application of CGRP.

[4] abbreviates: nasal instillation 5 mg (0.357 mg/cm^2) once daily.
Setting [5] is: nasal instillation 15 mg (1.07 mg/cm^2) once daily.
Setting [6] is: nasal instillation 35 mg (2.50 mg/cm^2) once daily.
Where [7] appears, read: marmoset, efficacy vs. exposure.

Turning to `Cc1cc(C[C@@H](NC(=O)N2CCC(c3cc4ccccc4[nH]c3=O)CC2)C(=O)N2CCN(C3CCN(C)CC3)CC2)cc2cn[nH]c12` [Compound I, (R)—N-(3-(7-methyl-1H-indazol-5-yl)-1-(4-(1-methylpiperidin-4-yl)piperazin-1-yl)-1-oxopropan-2-yl)-4-(2-oxo-1,2-dihydroquinolin-3-yl)piperidine-1-carboxamide], the “tolerability of intranasal administration” value in data set [1] (male rats, 5, 15 or 35 mg once daily for 1 week) is given as “well tolerated”. Also, the “Olfactory Epithelial Atrophy, incidence of severity Marked (number of rats)” value in data set [1] (setting [4]), in data set [1] (setting [5]) and in data set [1] (setting [6]) was 0 in each case. The “Olfactory Epithelial Atrophy, incidence of severity Mild (number of rats)” value is reported as 0 in data set [1] (setting [4]), 2 in data set [1] (setting [5]) and 2 in data set [1] (setting [6]). Also, the “Olfactory Epithelial Atrophy, incidence of severity Minimal (number of rats)” value in data set [1] (setting [4]) is given as 1; in data set [1] (setting [5]) it was 6; in data set [1] (setting [6]), 3. Moreover, the “Olfactory Epithelial Atrophy, incidence of severity Moderate (number of rats)” value in data set [1] (setting [4]), in data set [1] (setting [5]) and in data set [1] (setting [6]) was 0 in each case. Also, the “Olfactory Epithelial Atrophy, incidence of severity None (number of rats)” value amounted to 8 in data set [1] (setting [4]), 1 in data set [1] (setting [5]) and 4 in data set [1] (setting [6]). Further, the “inhibition of CGRP-induced increases in facial blood flow” value in data set [2] (0.003 mg/kg SC, at 0.25 hr) is on record as 20%; in data set [2] (0.003 mg/kg SC, later test times), “no effect”; in data set [2] (0.01 mg/kg SC, across all post-dose test times) it was 35-40%; in data set [2] (0.03 mg/kg SC, at 0.25, 1 and 1.75 hr post-dose), 53-80%. The “plasma levels associated with maximal efficacy” value in data set [2] (setting [7]) was not below 25 nM. In addition, in data set [2] (setting [7]), the “plasma levels associated with significant in vivo efficacy” value is on record as not below 8 nM. The Kb in data set [3] came out at 0.091 nM.
